# Assay results published in PubChem BioAssay (NCI).
# Values joined by “and” are separate entries in the source; they are usually repeats but may differ in a detail not shown here. Equal entries are not always repeated.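 All cell lines were grown in 96-well plates and treated with compound for 48 hours. GI50 is the concentration that inhibits growth by half. TGI marks complete inhibition of growth.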
# Tests used:
# Test in all cases: NCI-60 cell line screen, 48 h
# [1] = tested on: OVCAR-4 ovarian
# [2] = tested on: TK-10 renal
# [3] = tested on: 786-0 renal
# [4] = tested on: OVCAR-8 ovarian
# [5] = tested on: NCI-H23 lung
# [6] = tested on: CCRF-CEM leukemia
# [7] = tested on: SK-MEL-28 melanoma
# [8] = tested on: HT29 colon
# [9] = tested on: UACC-62 melanoma
# [10] = tested on: KM12 colon
SMILES,TGI [1],TGI [2],TGI [3],TGI [4],TGI [5],TGI [6],TGI [7],TGI [8],TGI [9] [µM],TGI [10] [µM],GI50 [1],GI50 [2] [µM],GI50 [3],GI50 [4],GI50 [5],GI50 [6],GI50 [7],GI50 [8],GI50 [9] [µM],GI50 [10]
N#C/C(=C/c1ccc([N+](=O)[O-])o1)c1ccccc1,> 100 µM,> 100 µM,> 100 µM,> 100 µM,> 100 µM,> 100 µM,> 100 µM,> 100 µM,> 100,> 100,,,,,,,,,,
CN(N=O)c1ccc(/C=C/c2ccnc3ccccc23)cc1,> 100 µM,> 100 µM,> 100 µM,> 100 µM,> 100 µM,> 100 µM,> 100 µM,> 100 µM,> 100,> 100,,,,,,,,,,
O=C1c2ccccc2-c2cn(Cc3ccccc3)c3cccc(c23)C1c1cccnc1 (configuration not stated),> 50 µM,> 50 µM,> 50 µM,> 50 µM,> 50 µM,> 50 µM,> 50 µM,> 50 µM,> 50,> 50,6.15 µM,20.8,5.78 µM,9.3 µM,1.74 µM,2.62 µM,4.12 µM,1.86 µM,2.73,2.27 µM
CO[C@H]1C[C@H](O[C@H]2CC[C@@]3(C)[C@H](CC[C@@H]4[C@@H]3CC[C@]3(C)[C@@H](C5=CC(=O)OC5)CC[C@]43O)C2)O[C@H](C)[C@H]1O,< 0.0131 µM,0.0482 µM,< 0.0129 µM,0.0245 µM,0.0178 µM,> 100 µM,0.137 µM,0.0552 µM,0.031,0.371,,,,,,,,,,
COc1ccc([C@@H]2[C@@H](Cl)C(=O)N2c2cc(OC)c(OC)c(OC)c2)cc1C,> 100 µM,79.9 µM,21.6 µM,77.5 µM,> 100 µM,> 100 µM,> 100 µM,11.9 µM,41.1,17.1,0.769 µM,10.5,0.0643 µM,0.0504 µM,0.0853 µM,0.0465 µM,11 µM,0.0327 µM,0.0607,0.0419 µM
ClC/C=C/CSc1ncnc2nc[nH]c12,> 100 µM,,> 100 µM,> 100 µM,> 100 µM,> 100 µM,> 100 µM,> 100 µM,> 100,> 100,> 100 µM,,> 100 µM,> 100 µM,> 100 µM,> 100 µM,> 100 µM,> 100 µM,> 100,> 100 µM
COC(=O)[C@]12CC[C@@H](C)[C@H](C)[C@@H]1C1=CC[C@@H]3[C@@]4(C)C[C@@H](OC(C)=O)[C@H](OC(C)=O)[C@@](C)(COC(C)=O)[C@@H]4[C@H](O)C[C@@]3(C)[C@]1(C)CC2,> 100 µM,> 100 µM,> 100 µM,> 100 µM,> 100 µM,> 100 µM,> 100 µM,> 100 µM,,> 100,3.21 µM,3.08,1.8 µM,3.15 µM,2.25 µM,1.96 µM,2.74 µM,0.659 µM,,1.03 µM
COc1ccc(/C=C\c2cc(OC)c(OC)c(OC)c2)cc1NC(=O)/C=C/c1cc(OC)c(OC)c(OC)c1,> 100 µM,> 100 µM,> 100 µM,> 100 µM,> 100 µM,> 100 µM,> 100 µM,> 100 µM,> 100,> 100,6.77 µM,> 100,5.43 µM,5.14 µM,6.96 µM,4.16 µM,3.42 µM,3.55 µM,2.8,4.67 µM
COc1oc(C2C/C(=C/C(C)=C/C(C)=C/C(C)=C/c3ccc([N+](=O)[O-])cc3)CO2)c(C)c(=O)c1C (configuration not stated),> 42.2 µM,> 45.6 µM,21.6 µM,32.5 µM,31.4 µM,23.5 µM,> 60.5 µM,> 50 µM,> 54.8,> 48.2,,,,,,,,,,
C=C1C(C)C2C(Cc3ccccc3)NC(=O)C23C(OC(C)=O)C=CC(C)(O)C(=O)C(C)C/C=C/C3C1O (configuration not stated),99.8 µM and > 500 µM,,56.2 µM and > 120 µM,> 500 µM,82.2 µM and 259 µM,78.8 µM and > 500 µM,57.7 µM and 153 µM,> 278 µM,> 285,> 500,10.4 µM,0.732,2.05 µM,> 471 µM,15.6 µM,15.4 µM,22.2 µM,0.0505 µM and 0.176 µM and 0.0663 µM,29.4,163 µM
CSc1ccc(-c2cn3ccsc3n2)cc1,> 100 µM,> 84.7 µM,> 100 µM,> 100 µM,> 100 µM,> 47.1 µM,> 100 µM,> 100 µM,> 100,> 100,9.15 µM,18,32.3 µM,15.8 µM,19.3 µM,3.97 µM,27 µM,33.3 µM,25.7,24.4 µM
NS(=O)(=O)c1cccc(Nc2cc(-c3ccc(F)cc3)[nH]n2)c1,> 25 µM,> 25 µM,> 25 µM,> 25 µM,> 25 µM,> 25 µM,> 25 µM,> 25 µM,> 25,> 25,> 22 µM,20.3,23.2 µM,19.4 µM,> 25 µM,23 µM,> 25 µM,> 25 µM,> 21.1,8.22 µM
CCOC(=O)Nc1cc2c(c(N)n1)N=C(c1ccc(Cl)cc1Cl)CN2,39.7 µM,35.4 µM,18.5 µM,37.2 µM,27.5 µM,> 100 µM,29.5 µM,0.641 µM,11.6,2.83,,,,,,,,,,
Cc1nc2ccccc2c(=O)n1/N=C(\N=Nc1cc(Cl)ccc1Cl)c1ccc(N(C)C)cc1,,> 100 µM,> 100 µM,> 100 µM,> 100 µM,> 100 µM,> 100 µM,> 100 µM,> 100,,,,,,,,,,,
COc1cc2c(c3oc4c(O)cccc4c(=O)c13)CC(C(C)(O)CCl)O2 (configuration not stated),8.18 µM,41.8 µM,12.8 µM,7.94 µM,6.14 µM,,3.74 µM,15.9 µM,2.3,4.56,,,,,,,,,,
C#Cc1c(C)c(/C=C/C(C)=C\C(=O)OC)n(C)c1C,> 100 µM,> 100 µM,> 100 µM,> 100 µM,> 100 µM,> 100 µM,,> 100 µM,> 100,> 100,,,,,,,,,,
CC(C)(c1ccc(C=O)o1)c1ccc(C(C)(C)c2ccc(C=O)o2)o1,> 100 µM,> 100 µM,> 100 µM,> 100 µM,> 100 µM,> 100 µM,> 100 µM,> 100 µM,,> 100,,,,,,,,,,

SMILES,TGI [1],TGI [2],TGI [3],TGI [4],TGI [5],TGI [6],TGI [7],TGI [8],TGI [9] [µM],TGI [10] [µM],GI50 [1],GI50 [2] [µM],GI50 [3],GI50 [4],GI50 [5],GI50 [6],GI50 [7],GI50 [8],GI50 [9] [µM],GI50 [10]
O=C1CCNC/C1=C\c1ccccc1,31.3 µM,61.2 µM,29 µM,43.4 µM,34.4 µM,,35.1 µM,32.9 µM,34.3,28.9,,,,,,,,,,
CCNC(=O)O/N=C1\CCC2[C@@H]3CC=C4C[C@@H](OC(=O)NCC)CC[C@]4(C)C3CC[C@]12C (some centres not stated),5.19 µM,5.9 µM,12.8 µM,18.2 µM,11.7 µM,,12.1 µM,13 µM,10.2,13.8,,,,,,,,,,
CC1(C)C2CC(=O)C1(C)C(OCc1ccccc1)C2Br (configuration not stated),,> 100 µM,> 100 µM,56.8 µM and > 100 µM,76.3 µM and > 100 µM,49.1 µM and 56.1 µM,> 100 µM,32.2 µM and 71.3 µM,> 100,> 100,,,46.5 µM and > 100 µM,22.7 µM and 95.7 µM,,,15.1 µM and > 100 µM,,,31.4 µM and 63 µM
CCn1c(=O)nc2n(-c3ccc(SC)cc3)c3ccccc3nc-2c1=O,> 100 µM,> 100 µM,> 100 µM,> 100 µM,> 100 µM,> 100 µM,> 100 µM,,> 100,> 100,,,,,,,,,,
CCOC(=O)C1=C(C)N(NC(=O)Nc2ccccc2)C2(N)N(NC(=O)Nc3ccccc3)C(C)=C(C(=O)OCC)C12C#N (configuration not stated),31.5 µM,49.3 µM,32.4 µM,33.4 µM,43.9 µM,71.9 µM,32.1 µM,38.1 µM,32.2,,,,,,,,,,,
CCCCCCCCCC(=O)Oc1ccc(/C(=C(/C)c2ccccc2)c2ccc(OCCN3CCCC3)cc2)cc1,14.9 µM,16.7 µM,16.8 µM,20.8 µM,16.1 µM,22.3 µM,,,16.8,16.7,7.39 µM,8.86,8.77 µM,9.78 µM,7.74 µM,9.51 µM,,,9.18,8.78 µM
COc1cc(O)c(C(=O)C2Cc3ccccc32)c(OC)c1 (configuration not stated),> 100 µM,> 100 µM,> 100 µM,> 100 µM,,> 100 µM,,> 100 µM,> 100,> 100,,,,,,,,,,
NN=C1/C(=C\c2ccccc2)CCC/C1=C/c1ccccc1,> 100 µM,> 100 µM,> 100 µM,> 100 µM,> 100 µM,45 µM,> 100 µM,,> 100,> 100,,,,,,,,,,
COC1=CC(=O)C2(C=C1OC)OC[C@H]1Oc3c(ccc4c3C=CC(C)(C)O4)C(=O)[C@H]12 (some centres not stated),,> 100 µM,> 100 µM,> 100 µM,95.3 µM,> 100 µM,> 100 µM,> 100 µM,> 100,> 100,,,,,,,,,,
COc1cc2c3c(c4cc(OC)c(OC)cc4c2cc1OC)CN1CCC[C@H]1C3,1.28 µM and 0.392 µM,0.103 µM and 0.497 µM,> 10 µM and 2.46 µM,> 34 µM,0.653 µM and 3.4 µM,0.977 µM and 4.84 µM,,1.14 µM,,1.22,0.0419 µM and < 0.01 µM,,0.0417 µM and 0.0103 µM,0.0381 µM and < 0.0103 µM,0.0406 µM and < 0.0123 µM,0.0524 µM and < 0.0104 µM,,0.034 µM and < 0.01 µM,,0.0452 µM and < 0.01 µM
NP1(Oc2ccc(F)cc2)=NP(N)(Oc2ccc(F)cc2)=NP(Oc2ccc(F)cc2)(Oc2ccc(F)cc2)=N1 (configuration not stated),,12.3 µM,22.9 µM,14.9 µM,23.9 µM,18.9 µM,25.2 µM,17.2 µM,,16.2,,,,,,,,,,
Cc1ccc2nc(CN(CCN(Cc3nc4ccc(C)cc4[nH]3)Cc3nc4ccc(C)cc4[nH]3)Cc3nc4ccc(C)cc4[nH]3)[nH]c2c1,,2.95 µM,3.15 µM,3.22 µM,,,3.15 µM,3.2 µM,3.1,3.18,,1.48,1.75 µM,1.76 µM,,,1.75 µM,1.77 µM,1.72,1.77 µM
O=C(CC1(O)C(=O)Nc2ccccc21)c1cccc(O)c1 (configuration not stated),> 100 µM,> 100 µM,> 100 µM,> 100 µM,> 100 µM,,> 100 µM,> 100 µM,> 100,,,,,,,,,,,
Cc1ccccc1NC(=O)C(=O)C(C(=O)c1ccccc1F)C1OC(=O)c2ccccc21 (configuration not stated),60.9 µM,> 100 µM,41.6 µM,,28.2 µM,62.4 µM,35.8 µM,> 100 µM,,68.2,,,,,,,,,,
CC(=O)OC1(C(C)=O)CC2(c3ccccc3)OC1(c1ccccc1)c1ccccc12 (configuration not stated),,> 100 µM,> 100 µM,> 100 µM,> 100 µM,,> 100 µM,> 100 µM,43.8,> 100,,,,,,,,,,
C=C(C)[C@@H]1CC[C@]2(C(=O)O)CC[C@]3(C)[C@H](CC[C@@H]4[C@@]5(C)CCC(N)C(C)(C)[C@@H]5CC[C@]43C)[C@@H]12 (some centres not stated),> 100 µM,,3.07 µM,,,5.53 µM,,,3.55,,2.79 µM,,1.59 µM,,,2.11 µM,,,1.92,
COc1ccccc1NC(=O)c1sc2ncn(CCOc3ccccc3)c(=O)c2c1C,,> 50 µM,> 50 µM,> 50 µM,> 50 µM,,,,> 50,> 50,,> 50,> 50 µM,> 50 µM,4.93 µM,,,,2.04,1.43 µM
